In ChEMBL document CHEMBL4507291 (2021):

Experiments:
[1] = target: 5-hydroxytryptamine receptor 1B (Homo sapiens) (UniProt P28222); conditions: Compound concentration 10.0 uM
[2] = target: Serine/threonine-protein kinase RIO3 (Homo sapiens) (UniProt O14730)
[3] = target: T1, Ephrin type-A receptor 8 (Homo sapiens) (UniProt P29322)
T1 sequence (whole entry): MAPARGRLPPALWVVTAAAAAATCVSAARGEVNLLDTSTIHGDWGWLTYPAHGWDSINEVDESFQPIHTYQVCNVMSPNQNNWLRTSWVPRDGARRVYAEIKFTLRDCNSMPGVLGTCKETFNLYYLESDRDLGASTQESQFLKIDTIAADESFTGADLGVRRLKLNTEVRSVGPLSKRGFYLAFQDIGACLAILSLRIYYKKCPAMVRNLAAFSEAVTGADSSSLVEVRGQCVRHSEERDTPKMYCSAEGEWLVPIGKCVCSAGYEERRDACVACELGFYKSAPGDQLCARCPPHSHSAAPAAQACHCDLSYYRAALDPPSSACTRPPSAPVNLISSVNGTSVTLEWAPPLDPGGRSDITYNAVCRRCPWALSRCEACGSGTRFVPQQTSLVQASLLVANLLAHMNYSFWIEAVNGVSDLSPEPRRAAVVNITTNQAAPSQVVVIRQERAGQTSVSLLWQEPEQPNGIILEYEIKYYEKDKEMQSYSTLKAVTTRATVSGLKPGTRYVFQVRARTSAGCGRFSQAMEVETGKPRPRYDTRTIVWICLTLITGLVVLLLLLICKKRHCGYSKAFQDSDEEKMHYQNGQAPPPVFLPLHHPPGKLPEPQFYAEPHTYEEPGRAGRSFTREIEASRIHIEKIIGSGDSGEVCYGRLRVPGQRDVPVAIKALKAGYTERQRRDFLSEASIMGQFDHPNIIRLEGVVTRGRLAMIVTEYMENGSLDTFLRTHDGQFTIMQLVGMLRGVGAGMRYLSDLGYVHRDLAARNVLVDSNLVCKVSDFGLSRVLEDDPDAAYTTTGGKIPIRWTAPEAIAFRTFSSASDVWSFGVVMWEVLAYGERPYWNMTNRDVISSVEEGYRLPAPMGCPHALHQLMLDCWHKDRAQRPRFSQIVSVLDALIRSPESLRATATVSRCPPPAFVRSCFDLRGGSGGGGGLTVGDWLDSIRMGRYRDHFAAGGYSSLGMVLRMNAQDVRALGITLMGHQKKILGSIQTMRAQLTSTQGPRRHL

[4] = target: Mast/stem cell growth factor receptor Kit (Homo sapiens) (UniProt P10721)
Sequence of Mast/stem cell growth factor receptor Kit (Homo sapiens) (P10721 whole entry, canonical isoform): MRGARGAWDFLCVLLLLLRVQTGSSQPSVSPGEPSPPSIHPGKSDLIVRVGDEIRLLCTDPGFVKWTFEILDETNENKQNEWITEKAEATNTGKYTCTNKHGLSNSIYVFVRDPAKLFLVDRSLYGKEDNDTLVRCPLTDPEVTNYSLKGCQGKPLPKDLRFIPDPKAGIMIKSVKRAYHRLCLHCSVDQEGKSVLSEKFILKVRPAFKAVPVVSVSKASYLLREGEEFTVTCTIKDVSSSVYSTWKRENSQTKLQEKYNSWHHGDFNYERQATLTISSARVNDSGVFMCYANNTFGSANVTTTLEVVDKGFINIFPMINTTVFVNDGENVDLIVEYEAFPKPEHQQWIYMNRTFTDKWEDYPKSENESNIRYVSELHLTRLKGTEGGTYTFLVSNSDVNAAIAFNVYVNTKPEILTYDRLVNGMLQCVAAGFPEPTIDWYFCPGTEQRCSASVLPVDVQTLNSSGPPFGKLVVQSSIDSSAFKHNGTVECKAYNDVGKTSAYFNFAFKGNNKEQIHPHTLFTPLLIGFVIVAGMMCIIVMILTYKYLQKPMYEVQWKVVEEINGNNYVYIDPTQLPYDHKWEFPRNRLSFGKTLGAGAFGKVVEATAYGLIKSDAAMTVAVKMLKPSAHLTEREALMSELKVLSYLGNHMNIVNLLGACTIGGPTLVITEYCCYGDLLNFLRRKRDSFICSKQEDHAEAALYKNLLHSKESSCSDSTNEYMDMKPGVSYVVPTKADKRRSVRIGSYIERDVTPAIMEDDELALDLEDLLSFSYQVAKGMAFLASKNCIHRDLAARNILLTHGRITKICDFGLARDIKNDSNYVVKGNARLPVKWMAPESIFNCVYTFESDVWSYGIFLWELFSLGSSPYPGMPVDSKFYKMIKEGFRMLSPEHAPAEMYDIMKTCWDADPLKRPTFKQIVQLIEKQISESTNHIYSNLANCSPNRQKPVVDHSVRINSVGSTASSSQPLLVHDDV

[5] = target: Casein kinase I isoform gamma-2 (Homo sapiens) (UniProt P78368)
Sequence of Casein kinase I isoform gamma-2 (Homo sapiens) (P78368 whole entry, looked up, canonical isoform): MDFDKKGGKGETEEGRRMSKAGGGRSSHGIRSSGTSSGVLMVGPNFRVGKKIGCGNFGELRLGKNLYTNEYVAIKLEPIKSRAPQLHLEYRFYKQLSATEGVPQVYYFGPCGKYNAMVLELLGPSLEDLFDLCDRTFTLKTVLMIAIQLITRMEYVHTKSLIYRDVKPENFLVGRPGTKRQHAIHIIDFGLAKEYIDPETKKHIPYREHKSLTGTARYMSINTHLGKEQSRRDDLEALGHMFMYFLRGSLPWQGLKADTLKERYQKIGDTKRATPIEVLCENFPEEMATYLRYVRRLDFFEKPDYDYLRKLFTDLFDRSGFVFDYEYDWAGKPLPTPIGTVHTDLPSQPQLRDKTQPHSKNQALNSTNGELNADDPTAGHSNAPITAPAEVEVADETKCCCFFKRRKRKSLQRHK

[6] = target: Glycogen synthase kinase-3 alpha (Homo sapiens) (UniProt P49840)
[7] = target: Cyclin-dependent kinase 2 (Homo sapiens) (UniProt P24941)
[8] = target: T2, Serine/threonine-protein kinase DCLK2 (Homo sapiens) (UniProt Q8N568)
T2 sequence (whole entry): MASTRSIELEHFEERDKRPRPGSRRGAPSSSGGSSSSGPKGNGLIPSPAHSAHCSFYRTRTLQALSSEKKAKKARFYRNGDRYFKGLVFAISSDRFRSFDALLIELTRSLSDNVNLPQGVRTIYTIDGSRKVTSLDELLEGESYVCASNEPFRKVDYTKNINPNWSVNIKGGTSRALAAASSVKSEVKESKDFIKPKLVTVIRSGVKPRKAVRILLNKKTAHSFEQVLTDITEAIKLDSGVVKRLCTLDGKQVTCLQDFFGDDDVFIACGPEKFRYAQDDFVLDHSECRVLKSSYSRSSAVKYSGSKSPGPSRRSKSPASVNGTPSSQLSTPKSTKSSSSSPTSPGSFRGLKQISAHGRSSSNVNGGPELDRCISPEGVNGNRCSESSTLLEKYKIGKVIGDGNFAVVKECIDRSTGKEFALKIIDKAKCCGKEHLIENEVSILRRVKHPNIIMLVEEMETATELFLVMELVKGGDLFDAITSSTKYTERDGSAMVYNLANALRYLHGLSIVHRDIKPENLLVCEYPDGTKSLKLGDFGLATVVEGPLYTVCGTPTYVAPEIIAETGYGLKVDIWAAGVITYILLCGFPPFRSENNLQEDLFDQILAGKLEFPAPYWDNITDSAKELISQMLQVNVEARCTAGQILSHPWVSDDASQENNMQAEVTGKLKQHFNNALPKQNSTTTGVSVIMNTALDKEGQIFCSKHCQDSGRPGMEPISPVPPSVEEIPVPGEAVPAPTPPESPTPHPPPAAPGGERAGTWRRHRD

[9] = target: Fibroblast growth factor receptor 3 (Homo sapiens) (UniProt P22607)
[10] = target: T3, Dual specificity mitogen-activated protein kinase kinase 6 (Homo sapiens) (UniProt P52564)
T3 sequence (whole entry): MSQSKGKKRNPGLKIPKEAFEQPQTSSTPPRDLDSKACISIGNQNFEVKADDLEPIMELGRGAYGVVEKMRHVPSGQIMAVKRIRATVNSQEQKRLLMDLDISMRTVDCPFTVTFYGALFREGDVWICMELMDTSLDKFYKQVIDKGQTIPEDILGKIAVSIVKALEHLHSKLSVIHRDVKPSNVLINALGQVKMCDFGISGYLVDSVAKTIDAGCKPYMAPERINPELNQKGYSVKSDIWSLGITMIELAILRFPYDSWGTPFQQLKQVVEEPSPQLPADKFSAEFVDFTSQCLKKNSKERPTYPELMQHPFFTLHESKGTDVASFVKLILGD

[11] = target: Mitogen-activated protein kinase kinase kinase 19 (Homo sapiens) (UniProt Q56UN5)
Sequence of Mitogen-activated protein kinase kinase kinase 19 (Homo sapiens) (Q56UN5 whole entry): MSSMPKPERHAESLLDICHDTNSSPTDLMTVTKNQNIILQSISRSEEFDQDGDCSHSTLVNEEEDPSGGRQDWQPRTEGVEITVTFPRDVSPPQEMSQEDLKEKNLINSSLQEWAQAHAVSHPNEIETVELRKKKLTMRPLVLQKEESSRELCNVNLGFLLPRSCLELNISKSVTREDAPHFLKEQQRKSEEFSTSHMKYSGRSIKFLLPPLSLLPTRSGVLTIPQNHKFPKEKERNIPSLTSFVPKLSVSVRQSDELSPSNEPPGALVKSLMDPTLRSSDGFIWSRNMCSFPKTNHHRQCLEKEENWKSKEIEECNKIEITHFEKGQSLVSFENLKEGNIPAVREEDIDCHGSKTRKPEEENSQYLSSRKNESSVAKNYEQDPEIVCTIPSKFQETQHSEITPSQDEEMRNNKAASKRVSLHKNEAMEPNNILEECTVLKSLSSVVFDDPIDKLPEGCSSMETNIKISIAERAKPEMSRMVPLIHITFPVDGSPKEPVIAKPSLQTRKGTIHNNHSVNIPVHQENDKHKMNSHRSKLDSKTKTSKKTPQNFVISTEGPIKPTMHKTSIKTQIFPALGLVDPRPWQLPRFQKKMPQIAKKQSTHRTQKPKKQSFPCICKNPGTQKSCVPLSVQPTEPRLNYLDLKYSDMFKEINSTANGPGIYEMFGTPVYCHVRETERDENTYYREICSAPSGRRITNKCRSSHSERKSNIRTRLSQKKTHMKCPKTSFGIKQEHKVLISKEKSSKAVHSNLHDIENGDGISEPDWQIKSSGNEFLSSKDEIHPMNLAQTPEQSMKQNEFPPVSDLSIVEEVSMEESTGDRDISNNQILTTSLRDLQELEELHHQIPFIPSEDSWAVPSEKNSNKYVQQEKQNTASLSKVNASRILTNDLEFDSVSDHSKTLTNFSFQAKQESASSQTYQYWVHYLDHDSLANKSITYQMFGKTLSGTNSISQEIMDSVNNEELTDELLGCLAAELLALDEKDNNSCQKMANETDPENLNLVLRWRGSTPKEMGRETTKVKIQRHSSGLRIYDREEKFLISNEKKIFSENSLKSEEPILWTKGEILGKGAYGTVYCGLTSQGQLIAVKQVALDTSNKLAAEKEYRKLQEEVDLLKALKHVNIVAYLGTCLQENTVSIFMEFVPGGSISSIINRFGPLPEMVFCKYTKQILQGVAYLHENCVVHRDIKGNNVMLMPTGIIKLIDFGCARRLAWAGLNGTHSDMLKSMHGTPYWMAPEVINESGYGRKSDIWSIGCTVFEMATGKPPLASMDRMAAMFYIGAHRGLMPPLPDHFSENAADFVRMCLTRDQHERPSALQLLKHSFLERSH

[12] = target: Serine/threonine-protein kinase BRSK2 (Homo sapiens) (UniProt Q8IWQ3)
Sequence of Serine/threonine-protein kinase BRSK2 (Homo sapiens) (Q8IWQ3 whole entry): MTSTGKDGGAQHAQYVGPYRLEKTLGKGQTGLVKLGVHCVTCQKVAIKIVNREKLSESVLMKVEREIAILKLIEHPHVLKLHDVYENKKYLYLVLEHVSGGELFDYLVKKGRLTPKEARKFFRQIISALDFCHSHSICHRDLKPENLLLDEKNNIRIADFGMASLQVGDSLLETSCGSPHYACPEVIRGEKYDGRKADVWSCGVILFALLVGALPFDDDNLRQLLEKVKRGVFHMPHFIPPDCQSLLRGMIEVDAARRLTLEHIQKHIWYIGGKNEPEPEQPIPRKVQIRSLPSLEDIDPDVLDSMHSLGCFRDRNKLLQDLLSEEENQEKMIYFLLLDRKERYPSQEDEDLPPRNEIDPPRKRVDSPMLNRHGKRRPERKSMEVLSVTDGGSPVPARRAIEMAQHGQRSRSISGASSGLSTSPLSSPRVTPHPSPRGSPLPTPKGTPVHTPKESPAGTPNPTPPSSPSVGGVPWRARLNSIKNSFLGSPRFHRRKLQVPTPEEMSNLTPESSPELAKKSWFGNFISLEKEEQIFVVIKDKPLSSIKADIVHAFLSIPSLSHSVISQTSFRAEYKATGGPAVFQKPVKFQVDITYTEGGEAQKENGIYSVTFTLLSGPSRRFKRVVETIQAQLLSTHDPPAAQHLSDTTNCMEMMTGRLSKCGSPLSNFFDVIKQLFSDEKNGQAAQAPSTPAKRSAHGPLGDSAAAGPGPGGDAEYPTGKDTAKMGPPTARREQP

[13] = target: Delta-type opioid receptor (Homo sapiens) (UniProt P41143); conditions: Compound concentration 10.0 uM
Sequence of Delta-type opioid receptor (Homo sapiens) (P41143 whole entry, the tested form may be a part): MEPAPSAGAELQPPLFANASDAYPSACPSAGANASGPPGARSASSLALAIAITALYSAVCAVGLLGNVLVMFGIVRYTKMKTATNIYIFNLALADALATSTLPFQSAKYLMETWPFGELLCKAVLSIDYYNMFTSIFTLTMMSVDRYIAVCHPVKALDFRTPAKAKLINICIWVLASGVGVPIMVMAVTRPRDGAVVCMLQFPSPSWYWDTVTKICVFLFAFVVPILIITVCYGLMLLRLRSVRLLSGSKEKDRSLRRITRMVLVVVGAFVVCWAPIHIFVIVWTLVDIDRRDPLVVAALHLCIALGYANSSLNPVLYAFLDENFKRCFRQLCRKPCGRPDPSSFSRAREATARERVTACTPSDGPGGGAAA

[14] = target: LIM domain kinase 2 (Homo sapiens) (UniProt P53671)
[15] = target: Macrophage colony-stimulating factor 1 receptor (Homo sapiens) (UniProt P07333)
Sequence of Macrophage colony-stimulating factor 1 receptor (Homo sapiens) (P07333 whole entry): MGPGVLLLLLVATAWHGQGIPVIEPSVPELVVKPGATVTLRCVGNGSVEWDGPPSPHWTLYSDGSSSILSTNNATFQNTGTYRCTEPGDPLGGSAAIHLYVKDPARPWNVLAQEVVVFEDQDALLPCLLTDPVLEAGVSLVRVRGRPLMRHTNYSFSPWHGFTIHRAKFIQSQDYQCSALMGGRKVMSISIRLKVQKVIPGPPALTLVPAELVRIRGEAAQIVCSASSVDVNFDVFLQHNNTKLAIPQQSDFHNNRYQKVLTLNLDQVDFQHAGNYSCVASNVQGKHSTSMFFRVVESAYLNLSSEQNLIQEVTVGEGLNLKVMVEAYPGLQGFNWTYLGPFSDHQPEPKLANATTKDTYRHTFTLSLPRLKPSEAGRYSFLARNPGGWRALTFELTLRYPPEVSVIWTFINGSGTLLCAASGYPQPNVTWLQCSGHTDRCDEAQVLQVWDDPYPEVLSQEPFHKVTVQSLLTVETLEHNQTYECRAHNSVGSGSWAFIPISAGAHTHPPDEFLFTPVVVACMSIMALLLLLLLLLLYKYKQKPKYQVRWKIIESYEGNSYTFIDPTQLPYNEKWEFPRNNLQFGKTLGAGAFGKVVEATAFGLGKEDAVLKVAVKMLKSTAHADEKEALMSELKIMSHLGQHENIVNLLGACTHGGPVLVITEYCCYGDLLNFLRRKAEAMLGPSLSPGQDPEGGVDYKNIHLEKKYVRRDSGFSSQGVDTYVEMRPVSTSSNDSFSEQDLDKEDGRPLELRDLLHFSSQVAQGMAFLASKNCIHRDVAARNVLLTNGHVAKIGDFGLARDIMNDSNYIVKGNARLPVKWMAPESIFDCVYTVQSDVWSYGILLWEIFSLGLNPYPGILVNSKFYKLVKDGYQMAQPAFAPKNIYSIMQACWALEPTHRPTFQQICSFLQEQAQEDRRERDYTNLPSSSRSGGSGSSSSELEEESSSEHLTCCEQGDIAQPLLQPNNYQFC

[16] = target: SRSF protein kinase 1 (Homo sapiens) (UniProt Q96SB4)
[17] = Compound concentration 1000.0 nM
[18] = Compound concentration 100.0 nM

C[C@@H]1CN(c2cc(-c3nn(C)c4ccc(OC5(C)CC5)cc34)ncn2)C[C@H](C)O1 [MLi-2-NC]
inactive: inhibition [1] 7.83% | residual activity [2, 17] 100% | residual activity [3, 17] 100% | residual activity [4, 17] 97% | residual activity [5, 17] 100% | residual activity [6, 17] 86% | residual activity [7, 17] 73% | residual activity [8, 17] 100% | residual activity [9, 17] 100% | residual activity [10, 17] 89% | residual activity [11, 17] 68% | residual activity [12, 17] 100% | inhibition [13] 23.3% | residual activity [14, 17] 92% | residual activity [15, 17] 55% | residual activity [16, 17] 88%

C[C@@H]1CN(c2cc(-c3n[nH]c4ccc(OC5(C)CC5)cc34)ncn2)C[C@H](C)O1 [MLi-2]
inactive: inhibition [1] 1.16% | residual activity [2, 18] 100% | residual activity [3, 18] 82% | residual activity [4, 18] 70% | residual activity [5, 18] 100% | residual activity [6, 18] 100% | residual activity [7, 18] 96% | residual activity [8, 18] 89% | residual activity [9, 18] 74% | residual activity [10, 18] 100% | residual activity [11, 18] 84% | residual activity [12, 18] 100% | inhibition [13] 6.66% | residual activity [14, 18] 91% | residual activity [15, 18] 84% | residual activity [16, 18] 100%
